Assay results: the NIST ThermoML archive (doi:10.1021/acs.jced.8b01236)

Experiment: xn = mol fraction of the nth substance listed
Conditions: Liquid; for binary diffusion coefficient: Open capillary; for mass density: Pycnometric method

CCCCCC[N+]1(C)CCCC1.O=S(=O)([N-]S(=O)(=O)C(F)(F)F)C(F)(F)F + O=C=O
Conditions | binary diffusion coefficient [m2/s] | mass density [kg/m3]
298.15 K, 100 kPa, x2 = 0.2 | 1.6e-10 | –
298.15 K, 1000 kPa, x2 = 0.2 | 2.4e-10 | –
298.15 K, 1004 kPa, x2 = 0.236 | – | 1360
298.15 K, 2000 kPa, x2 = 0.2 | 4e-10 | –
298.15 K, 2030 kPa, x2 = 0.403 | – | 1354
298.15 K, 2493 kPa, x2 = 0.484 | – | 1343
298.15 K, 3003 kPa, x2 = 0.531 | – | 1345
298.15 K, 3496 kPa, x2 = 0.577 | – | 1336
298.15 K, 3999 kPa, x2 = 0.614 | – | 1324
298.15 K, 4496 kPa, x2 = 0.653 | – | 1308
298.15 K, 4998 kPa, x2 = 0.683 | – | 1299
298.15 K, 5521 kPa, x2 = 0.716 | – | 1294
298.15 K, 5995 kPa, x2 = 0.738 | – | 1281
298.15 K, 6387 kPa, x2 = 0.751 | – | 1263
318.15 K, 1005 kPa, x2 = 0.179 | – | 1346
318.15 K, 2021 kPa, x2 = 0.315 | – | 1332
318.15 K, 2513 kPa, x2 = 0.366 | – | 1315
318.15 K, 2996 kPa, x2 = 0.416 | – | 1323
318.15 K, 4039 kPa, x2 = 0.515 | – | 1311
318.15 K, 6032 kPa, x2 = 0.632 | – | 1301
318.15 K, 7998 kPa, x2 = 0.72 | – | 1291
318.15 K, 9884 kPa, x2 = 0.783 | – | 1345
318.2 K, 100 kPa, x2 = 0.15 | 2.3e-10 | –
318.2 K, 1000 kPa, x2 = 0.15 | 3.8e-10 | –
318.2 K, 1800 kPa, x2 = 0.15 | 3.8e-10 | –
338.15 K, 1001 kPa, x2 = 0.118 | – | 1307
338.15 K, 2028 kPa, x2 = 0.264 | – | 1315
338.15 K, 2537 kPa, x2 = 0.293 | – | 1311
338.15 K, 3030 kPa, x2 = 0.346 | – | 1310
338.15 K, 4022 kPa, x2 = 0.443 | – | 1313
338.15 K, 5027 kPa, x2 = 0.508 | – | 1311
338.15 K, 6014 kPa, x2 = 0.561 | – | 1307
338.15 K, 7501 kPa, x2 = 0.637 | – | 1310
338.15 K, 10006 kPa, x2 = 0.706 | – | 1319
338.15 K, 12478 kPa, x2 = 0.752 | – | 1325
338.15 K, 14944 kPa, x2 = 0.771 | – | 1341

CCCC[N+]1(C)CCCC1.O=S(=O)([N-]S(=O)(=O)C(F)(F)F)C(F)(F)F + O=C=O
Conditions | binary diffusion coefficient [m2/s] | mass density [kg/m3]
298.15 K, 100 kPa, x2 = 0.2 | 1.3e-10 | –
298.15 K, 996 kPa, x2 = 0.199 | – | 1385
298.15 K, 1000 kPa, x2 = 0.2 | 1.6e-10 | –
298.15 K, 1997 kPa, x2 = 0.379 | – | 1377
298.15 K, 2000 kPa, x2 = 0.2 | 3e-10 | –
298.15 K, 2502 kPa, x2 = 0.449 | – | 1371
298.15 K, 3031 kPa, x2 = 0.51 | – | 1361
298.15 K, 3511 kPa, x2 = 0.559 | – | 1351
298.15 K, 4013 kPa, x2 = 0.602 | – | 1348
298.15 K, 4504 kPa, x2 = 0.638 | – | 1345
298.15 K, 5002 kPa, x2 = 0.674 | – | 1339
298.15 K, 5512 kPa, x2 = 0.702 | – | 1336
298.15 K, 6040 kPa, x2 = 0.728 | – | 1326
298.15 K, 6378 kPa, x2 = 0.745 | – | 1330
318.15 K, 1005 kPa, x2 = 0.156 | – | 1387
318.15 K, 2046 kPa, x2 = 0.311 | – | 1391
318.15 K, 3019 kPa, x2 = 0.436 | – | 1389
318.15 K, 4000 kPa, x2 = 0.528 | – | 1397
318.15 K, 6033 kPa, x2 = 0.638 | – | 1380
318.15 K, 8002 kPa, x2 = 0.714 | – | 1378
318.2 K, 100 kPa, x2 = 0.15 | 2.2e-10 | –
318.2 K, 1000 kPa, x2 = 0.15 | 2.9e-10 | –
318.2 K, 2000 kPa, x2 = 0.15 | 3.3e-10 | –
338.15 K, 1019 kPa, x2 = 0.123 | – | 1368
338.15 K, 2011 kPa, x2 = 0.23 | – | 1358
338.15 K, 2520 kPa, x2 = 0.301 | – | 1369
338.15 K, 3004 kPa, x2 = 0.345 | – | 1369
338.15 K, 4000 kPa, x2 = 0.435 | – | 1371
338.15 K, 5007 kPa, x2 = 0.495 | – | 1380
338.15 K, 6020 kPa, x2 = 0.537 | – | 1357
338.15 K, 7504 kPa, x2 = 0.606 | – | 1348
338.15 K, 10012 kPa, x2 = 0.682 | – | 1349
338.15 K, 12486 kPa, x2 = 0.712 | – | 1384
338.15 K, 14895 kPa, x2 = 0.728 | – | 1387

CCC[N+]1(C)CCCC1.O=S(=O)([N-]S(=O)(=O)C(F)(F)F)C(F)(F)F + O=C=O
Conditions | binary diffusion coefficient [m2/s] | mass density [kg/m3]
298.15 K, 100 kPa, x2 = 0.2 | 1.3e-10 | –
298.15 K, 1000 kPa, x2 = 0.2 | 1.8e-10 | –
298.15 K, 1009 kPa, x2 = 0.236 | – | 1464
298.15 K, 2000 kPa, x2 = 0.2 | 2.4e-10 | –
298.15 K, 2028 kPa, x2 = 0.389 | – | 1420
298.15 K, 3030 kPa, x2 = 0.503 | – | 1411
298.15 K, 3507 kPa, x2 = 0.553 | – | 1408
298.15 K, 4038 kPa, x2 = 0.598 | – | 1401
298.15 K, 4517 kPa, x2 = 0.632 | – | 1390
298.15 K, 5014 kPa, x2 = 0.661 | – | 1386
298.15 K, 5505 kPa, x2 = 0.688 | – | 1385
298.15 K, 6003 kPa, x2 = 0.709 | – | 1373
298.15 K, 6397 kPa, x2 = 0.725 | – | 1363
318.15 K, 1055 kPa, x2 = 0.185 | – | 1441
318.15 K, 2223 kPa, x2 = 0.323 | – | 1437
318.15 K, 4005 kPa, x2 = 0.471 | – | 1407
318.15 K, 5004 kPa, x2 = 0.528 | – | 1392
318.15 K, 6004 kPa, x2 = 0.575 | – | 1374
318.15 K, 7010 kPa, x2 = 0.621 | – | 1356
318.15 K, 8010 kPa, x2 = 0.664 | – | 1366
318.15 K, 16527 kPa, x2 = 0.731 | – | 1385
318.15 K, 19966 kPa, x2 = 0.751 | – | 1406
318.2 K, 100 kPa, x2 = 0.15 | 2.7e-10 | –
318.2 K, 1000 kPa, x2 = 0.15 | 3e-10 | –
318.2 K, 2000 kPa, x2 = 0.15 | 3.7e-10 | –
338.15 K, 1009 kPa, x2 = 0.065 | – | 1400
338.15 K, 2002 kPa, x2 = 0.198 | – | 1405
338.15 K, 2508 kPa, x2 = 0.249 | – | 1393
338.15 K, 3007 kPa, x2 = 0.328 | – | 1408
338.15 K, 4008 kPa, x2 = 0.413 | – | 1404
338.15 K, 4999 kPa, x2 = 0.474 | – | 1427
338.15 K, 6006 kPa, x2 = 0.536 | – | 1430
338.15 K, 7503 kPa, x2 = 0.612 | – | 1435
